Measurements taken from patent US8642656B2, “Calixarene-based peptide conformation mimetics, methods of use, and methods of making” (priority 2004, dated 2014).

Assays:
B16 melanoma = B16 melanoma tumor growth model in mice; format: in vivo; settings: tumor-bearing mice
Description: (§1) Female athymic nude mice (nu/nu, 5-6 weeks old) were used. These mice were purchased from the National Cancer Institute and allowed to acclimatize to local conditions for at least one week. Animals were given water and standard chow ad libitum, and were kept on a 12-hour light/dark cycle. All experiments were approved by the University of Minnesota Research Animal Resources ethical committee. Mice were randomized and split into three groups: 1) human serum albumin (10 mg/kg/day), 2) βpep-25 (10 mg/kg/day) and 3) peptide mimetic agent (5 mg or 10 mg/kg/day). Test compounds were diluted in DMSO and administered using osmotic mini-pumps (Durect, Cupertino, Calif.). Exponentially growing MA148 human ovarian carcinoma cells, kindly provided by Prof. Ramakrishnan (R. P. Dings et al., Cancer Res., 63, 382-385 (2003)) or B16 mouse melanoma cells were cultured in RPM1 1640 medium (Life Technologies, Grand Island, N.Y.). […]
Tumor volume was determined by measuring the diameters of tumors using calipers (Scienceware, Pequannock, N.J.) using the equation for the volume of a spheroid: (a^2×b×[…])/6, where ‘a’ is the width and ‘b’ the length or the tumor. […] Tumor weights correlated well with tumor volumes calculated in this way. Statistical differences in tumor growth curves were analyzed using the two-way ANOVA test.

MA148 tumor = assay: TUNEL staining for total cell apoptosis, MA148 tumors; format: in vivo, mice; settings: mean ± standard error, 20 images
Description: To assess the extent of total cell apoptosis, tumor tissue sections were stained by using the TUNEL (terminal deoxyribonucleotidyl transferase-mediated dUTP-nick-end labeling) assay, which was performed according to the manufacturer's instructions (In situ cell death detection kit, fluorescein; TUNEL, Roche). After 1-hour incubation at room temperature, slides were washed with PBS and immediately imaged using an Olympus BX-60 fluorescence microscope at 200× magnification.

[1] = test system: leukocytes in tumors of tumor bearing mice; assay: Leukocyte infiltration into tumors, anti-CD45 and anti-CD8 staining; format: in vivo; settings: compared with βpep-25; FIG. 4
Description: as §1, with “N.Y.). This medium was supplemented with 10% fetal bovine serum and 1% penicillin/streptomycin (Cellgro, Mediatech, Washington, D.C.) at 37° C and 5% CO2.” for “N.Y.).”
Similar size tumors without apparent widespread necrosis were embedded in tissue freezing medium (Miles Inc.; Elkart, Ind.) and snap frozen in liquid nitrogen. […] The vessel density and architecture was quantified as described earlier [Griffioen et al., Biochemical Journal 354, 233-242 (2001)]. […]

B16F10 tumor vessels = assay: Histological analysis of microvessel density, anti-CD31 staining, B16F10 tumors; format: in vivo, mice; settings: B16F10, 10 mg/kg; mean ± standard error, 20 images
Description: Immunohistochemistry was used to assess microvessel density and the extent of total cell apoptosis. Approximately, tumors of the same size and with no apparent necrosis were selected for processing. On the last day of treatment mice were sacrificed and tumors were excised. Tumor tissue was embedded in tissue freezing medium (Miles Inc, Elkart, Ind.) and shock frozen in liquid nitrogen. Sections of tissue (10 μm thickness) were prepared for immunohistochemical analysis. For this, tissue sections were brought to room temperature, air dried overnight, and then fixed in acetone for 10 minutes. Slides were allowed to air dry for at least 30 minutes and were washed three limes for 5 minutes each in phosphate-buffered saline (PBS, pH 7.4). Samples were then blocked with PBS containing 0.1% bovine serum albumin and 3% human serum albumin for at least 30 minutes at room temperature in a humidified box. Samples were subsequently incubated with phycoerytrin (PE)-conjugated monoclonal antibody to CD31 (PECAM-1) in a 1:50 dilution (Pharmigen, San Diego, Calif.) to stain for microvessel density.
Digital images were stored and processed using Adobe Photoshop (Adobe Inc., Mountain View Calif.). Quantification of microvessel density, were determined as described previously (Dings et al., Cancer Res 63, 382-385 (2003)). Statistical analysis was performed using the Student's t-test.

Compound: 5,11,17,23-Tetra-tert-butyl-25,27-bis(2-guanidinoethoxy)-26,28-dihydroxy calix[4]arene trifluoroacetic acid salt [Compound 27]
- B16 tumor growth (in words) (B16 melanoma): significantly inhibited
- Apoptosis (MA148 tumor; MA148, 2.7 mg/kg): 2418 ± 72 pixel counts per image
- Apoptosis (MA148 tumor; MA148, 10 mg/kg): 2333 ± 173 pixel counts per image
- leukocyte infiltration into tumors (in words) [1]: clearly more effective at increasing leukocyte infiltration into tumors than βpep-25
- Branch Points (B16F10 tumor vessels): 3.5 ± 0.5 pixel counts per image
- End Points (B16F10 tumor vessels): 35.2 ± 4.0 pixel counts per image
- Vessel Density (B16F10 tumor vessels): 10743 ± 764 pixel counts per image
- Vessel Length (B16F10 tumor vessels): 7.5 ± 0.6 pixel counts per image

Compound: CN(C)CCNC(=O)COc1c2cccc1Cc1cccc(c1OCC(=O)NCCN(C)C)Cc1cccc(c1OCC(=O)NCCN(C)C)Cc1cccc(c1OCC(=O)NCCN(C)C)C2 [Compound 40]
- B16 tumor growth (in words) (B16 melanoma): significantly inhibited
- Apoptosis (MA148 tumor; MA148, 2.4 mg/kg): 2919 ± 144 pixel counts per image
- Apoptosis (MA148 tumor; MA148, 10 mg/kg): 2323 ± 171 pixel counts per image
- leukocyte infiltration into tumors (in words) [1]: clearly more effective at increasing leukocyte infiltration into tumors than βpep-25
- Branch Points (B16F10 tumor vessels): 5.2 ± 0.7 pixel counts per image
- End Points (B16F10 tumor vessels): 21.9 ± 2.6 pixel counts per image
- Vessel Density (B16F10 tumor vessels): 10231 ± 1330 pixel counts per image
- Vessel Length (B16F10 tumor vessels): 8.6 ± 1.2 pixel counts per image
